Laboratory results taken from ChEMBL document CHEMBL3301562, “MMV Box screening against Plasmodium falciparum protein kinases and aminoacyl tRNA synthetases”.

Tests used:
Assay type in all cases: functional
[1] = target: T1, Cdk-related protein kinase 6 (Plasmodium falciparum, UniProt O77239); test: Final concentrations were 1.5 uM ATP, 5 mM MnCl2, and 15 ug/ml PK6 in a buffer of 100 mM Tris-HCl (pH 7.5). 50 ug/mL MBP was provided as the substrate; 10 uM staurosporine was used as a control inhibitor. Incubation time was 3 hours and 40 minutes.The catalytic activity of each kinase was considered proportional to ATP consumed, as determined from measurements of residual [ATP] with the luciferase-based reagent Kinase-Glo (Promega) following incubation. Luminescence (proportional to residual [ATP]) was measured on the plate readers FLx800 (BioTek Instruments, Winooski, VT, USA) and MicroBeta2.
T1 sequence (O77239 whole entry): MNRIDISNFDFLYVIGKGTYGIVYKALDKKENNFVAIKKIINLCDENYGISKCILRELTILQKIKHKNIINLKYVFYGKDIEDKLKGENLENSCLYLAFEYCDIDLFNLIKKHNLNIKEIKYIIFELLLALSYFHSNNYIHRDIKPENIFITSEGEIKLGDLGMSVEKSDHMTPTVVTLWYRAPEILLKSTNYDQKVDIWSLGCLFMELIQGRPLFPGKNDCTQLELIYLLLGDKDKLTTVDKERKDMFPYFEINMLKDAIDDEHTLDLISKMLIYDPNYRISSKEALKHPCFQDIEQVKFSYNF

[2] = target: T2, Putative uncharacterized protein pk7 (Plasmodium falciparum, UniProt O96214); test: Final concentrations were 1 uM ATP, 2 mM DTT, 20 mM MgCl2, 2 mM MnCl2, 0.01% BSA, and 6 ug/ml PK7, in a buffer of 20 mM Tris-HCl (pH 7.5). The enzyme itself was the only substrate present (since autophosphorylation occurs); 100 uM 1NA-PP1 was used as a control inhibitor. Incubation time was 3 hours.
T2 sequence (O96214 whole entry): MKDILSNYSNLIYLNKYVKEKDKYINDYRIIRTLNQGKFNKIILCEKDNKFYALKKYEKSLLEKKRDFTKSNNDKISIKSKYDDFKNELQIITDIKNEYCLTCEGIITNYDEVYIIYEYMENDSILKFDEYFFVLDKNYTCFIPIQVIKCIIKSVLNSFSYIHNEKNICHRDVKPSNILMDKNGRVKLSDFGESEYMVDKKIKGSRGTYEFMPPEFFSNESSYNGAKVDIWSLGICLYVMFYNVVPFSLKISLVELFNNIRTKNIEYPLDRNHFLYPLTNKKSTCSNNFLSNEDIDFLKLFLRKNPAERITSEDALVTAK

[3] = target: T3, Mitogen-activated protein kinase (Plasmodium falciparum, UniProt Q25917); test: Final concentrations were 1 uM ATP, 0.5 mM DTT, 1 mM MgCl2, 0.5 mg/mL BSA, and 10 ug/ml MAP2 in a buffer of 50 mM HEPES (pH 7.0). 0.5 mg/mL histone III-S served as the substrate (13); 100 uM AMP-PNP, an ATP analog, was used as a control inhibitor. Incubation time was 4 hours.
T3 sequence (Q25917 whole entry): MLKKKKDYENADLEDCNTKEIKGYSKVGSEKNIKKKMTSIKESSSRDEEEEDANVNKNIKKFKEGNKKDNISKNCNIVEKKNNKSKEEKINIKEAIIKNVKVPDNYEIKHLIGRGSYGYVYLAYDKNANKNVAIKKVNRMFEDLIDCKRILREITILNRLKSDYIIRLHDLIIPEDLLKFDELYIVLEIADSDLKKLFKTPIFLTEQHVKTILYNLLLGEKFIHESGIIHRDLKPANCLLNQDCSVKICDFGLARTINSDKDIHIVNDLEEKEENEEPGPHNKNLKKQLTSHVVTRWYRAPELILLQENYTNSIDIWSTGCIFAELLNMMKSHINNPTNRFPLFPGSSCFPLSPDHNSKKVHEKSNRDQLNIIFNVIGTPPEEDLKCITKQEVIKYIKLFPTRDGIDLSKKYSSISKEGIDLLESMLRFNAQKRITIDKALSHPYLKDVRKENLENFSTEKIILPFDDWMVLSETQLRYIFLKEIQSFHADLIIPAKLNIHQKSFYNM

[4] = target: Calcium-dependent protein kinase 1 (Plasmodium falciparum, UniProt P62344); test: MMV: CDPK1 Protein kinase inhibition assay using recombinant PfCDPK1, syntide 2 peptide substrate, ATP and KinaseGlo to measure % inhibition at 1 uM MMV box compound.
[5] = target: T4, Calcium-dependent protein kinase 4 (Plasmodium falciparum (isolate 3D7), UniProt Q8IBS5); test: MMV: CDPK4 Protein kinase inhibition assay using recombinant PfCDPK4, syntide2 peptide substrate, ATP and KinaseGlo to measure % inhibition at 1 uM MMV box compound.
T4 sequence (Q8IBS5 whole entry): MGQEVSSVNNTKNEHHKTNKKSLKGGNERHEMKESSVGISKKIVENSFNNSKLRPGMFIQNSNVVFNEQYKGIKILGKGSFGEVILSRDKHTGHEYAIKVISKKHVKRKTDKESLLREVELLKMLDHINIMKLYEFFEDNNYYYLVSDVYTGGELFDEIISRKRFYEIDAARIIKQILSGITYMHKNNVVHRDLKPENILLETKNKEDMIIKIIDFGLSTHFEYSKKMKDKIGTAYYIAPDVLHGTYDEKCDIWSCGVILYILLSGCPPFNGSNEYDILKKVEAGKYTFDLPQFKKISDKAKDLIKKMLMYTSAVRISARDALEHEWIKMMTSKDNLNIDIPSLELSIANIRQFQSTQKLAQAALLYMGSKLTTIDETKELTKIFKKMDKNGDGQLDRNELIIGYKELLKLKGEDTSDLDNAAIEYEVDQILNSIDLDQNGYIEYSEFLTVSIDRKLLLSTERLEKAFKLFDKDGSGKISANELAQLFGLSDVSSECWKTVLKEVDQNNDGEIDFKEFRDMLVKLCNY

Proline--tRNA ligase = target: T5, Proline--tRNA ligase (Plasmodium falciparum (isolate 3D7), UniProt Q8I5R7); test: MMV: ProRS recombinant Plasmodium falciparum Prolyl-tRNA-synthetase, assay with yeast tRNA, ATP, and proline and 3 uM MMV malaria box compound, assay read out with kinase glo as % inhibition.
T5 sequence (Q8I5R7 whole entry): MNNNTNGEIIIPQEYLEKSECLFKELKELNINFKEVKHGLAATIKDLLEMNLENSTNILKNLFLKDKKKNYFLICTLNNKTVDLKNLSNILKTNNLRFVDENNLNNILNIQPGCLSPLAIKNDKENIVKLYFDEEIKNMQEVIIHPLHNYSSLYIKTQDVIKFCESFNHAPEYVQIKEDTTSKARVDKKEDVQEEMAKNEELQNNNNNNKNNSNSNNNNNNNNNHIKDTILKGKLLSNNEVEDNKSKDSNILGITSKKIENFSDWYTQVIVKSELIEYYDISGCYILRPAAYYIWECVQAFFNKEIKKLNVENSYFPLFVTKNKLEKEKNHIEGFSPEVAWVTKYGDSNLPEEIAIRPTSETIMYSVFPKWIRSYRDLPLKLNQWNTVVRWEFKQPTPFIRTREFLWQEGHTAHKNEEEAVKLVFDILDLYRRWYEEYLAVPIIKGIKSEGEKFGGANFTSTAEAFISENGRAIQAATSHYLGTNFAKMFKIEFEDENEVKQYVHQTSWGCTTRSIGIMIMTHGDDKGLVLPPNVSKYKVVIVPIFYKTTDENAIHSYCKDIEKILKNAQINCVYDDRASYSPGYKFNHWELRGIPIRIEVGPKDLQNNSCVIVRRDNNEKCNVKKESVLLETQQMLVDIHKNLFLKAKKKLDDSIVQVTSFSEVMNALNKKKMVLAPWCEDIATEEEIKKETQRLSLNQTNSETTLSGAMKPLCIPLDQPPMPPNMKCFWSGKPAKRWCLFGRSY

Lysine--tRNA ligase = Lysine--tRNA ligase (Plasmodium falciparum (isolate 3D7), UniProt Q8IDJ8); test: MMV: KRS recombinant Plasmodium falciparum Lysyl-tRNA-synthetase, assay with yeast tRNA, ATP, and lysine and 3 uM MMV malaria box compound, assay read out with kinase glo as % inhibition.
Lysine--tRNA ligase, sequence (Q8IDJ8 whole entry): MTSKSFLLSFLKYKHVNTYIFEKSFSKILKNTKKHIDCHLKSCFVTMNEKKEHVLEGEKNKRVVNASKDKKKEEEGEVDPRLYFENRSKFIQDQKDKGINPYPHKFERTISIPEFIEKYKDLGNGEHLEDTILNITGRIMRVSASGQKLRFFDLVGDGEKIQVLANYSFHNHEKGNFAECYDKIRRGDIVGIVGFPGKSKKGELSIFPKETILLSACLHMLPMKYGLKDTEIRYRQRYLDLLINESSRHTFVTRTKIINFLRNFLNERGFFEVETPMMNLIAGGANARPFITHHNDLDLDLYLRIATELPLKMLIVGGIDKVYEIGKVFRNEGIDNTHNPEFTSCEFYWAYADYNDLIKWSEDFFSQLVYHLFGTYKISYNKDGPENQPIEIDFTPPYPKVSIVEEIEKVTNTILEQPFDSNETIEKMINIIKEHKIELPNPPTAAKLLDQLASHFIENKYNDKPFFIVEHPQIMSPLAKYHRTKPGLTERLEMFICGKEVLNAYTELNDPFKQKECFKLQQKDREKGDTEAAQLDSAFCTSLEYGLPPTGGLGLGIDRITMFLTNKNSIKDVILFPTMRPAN

Calcium-dependent protein kinase 1, sequence (P62344 whole entry): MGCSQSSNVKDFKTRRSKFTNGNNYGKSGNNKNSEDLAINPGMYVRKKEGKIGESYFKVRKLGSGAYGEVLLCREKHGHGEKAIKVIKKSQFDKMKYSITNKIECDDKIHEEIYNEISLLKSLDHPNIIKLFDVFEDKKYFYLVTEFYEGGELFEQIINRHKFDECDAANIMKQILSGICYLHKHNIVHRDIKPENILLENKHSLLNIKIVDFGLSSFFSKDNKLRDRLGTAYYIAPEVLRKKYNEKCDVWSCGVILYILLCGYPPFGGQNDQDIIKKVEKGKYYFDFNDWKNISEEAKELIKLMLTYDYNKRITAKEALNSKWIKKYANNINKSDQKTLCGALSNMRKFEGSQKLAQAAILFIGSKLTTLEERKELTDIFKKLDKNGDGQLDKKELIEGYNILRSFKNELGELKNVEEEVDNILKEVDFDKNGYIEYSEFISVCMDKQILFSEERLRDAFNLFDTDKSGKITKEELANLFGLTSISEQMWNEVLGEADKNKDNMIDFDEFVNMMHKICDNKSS

| SMILES | IC50 [1] [nM] | IC50 [2] [nM] | IC50 [3] [nM] | IC50 [4] [nM] | IC50 [5] [nM] | IC50 (Proline--tRNA ligase) [nM] | IC50 (Lysine--tRNA ligase) [nM] |
| --- | --- | --- | --- | --- | --- | --- | --- |
| CCCCC(O)(c1ccc(Cl)cc1)C(CN1CCOCC1)c1ccc(Cl)cc1 (configuration not stated) | > 1000 | > 1000 | > 1000 | > 1000 | > 1000 | > 2500 | > 2500 |
| COc1cccc(Nc2nc(N)c3ccccc3n2)c1 | > 1000 | > 1000 | > 1000 | > 1000 | > 1000 | > 2500 | > 2500 |
| CCc1ccc(Nc2cc(C)nc3nc(C)nn23)cc1 | > 1000 | > 1000 | > 1000 | > 1000 | > 1000 | > 2500 | > 2500 |
| CCOc1cccc2sc(N(Cc3cccnc3)C(=O)C3CCCCC3)nc12 | > 1000 | > 1000 | > 1000 | > 1000 | > 1000 | > 2500 | > 2500 |
| CCn1c(SCC(=O)Nc2cc(C(F)(F)F)ccc2Cl)nc2ccccc2c1=O | > 1000 | > 1000 | > 1000 | > 1000 | > 1000 | > 2500 | > 2500 |
| COc1ccc(-c2nonc2NC(=O)c2cccc(Cl)c2)cc1OC | > 1000 | > 1000 | > 1000 | > 1000 | > 1000 | > 2500 | > 2500 |
| OCCNc1nc(Nc2ccc(Cl)c(Cl)c2)nc2ccccc12 | > 1000 | > 1000 | > 1000 | > 1000 | > 1000 | > 2500 | > 2500 |
| COc1cccc(C2(C)Nc3ccccc3-c3nc4ccccc4n32)c1 (configuration not stated) | > 1000 | > 1000 | > 1000 | > 1000 | > 1000 | > 2500 | > 2500 |
| O=C(NC1CCN(Cc2ccccc2)CC1)c1cc(-c2ccncc2)nc2ccc(Cl)cc12 | > 1000 | > 1000 | > 1000 | > 1000 | > 1000 | > 2500 | > 2500 |
| Cc1ccc(NC(=O)Nc2cccc(Cl)c2)cc1F | > 1000 | > 1000 | > 1000 | > 1000 | > 1000 | > 2500 | > 2500 |
| O=C1c2ccccc2C2=Nc3ccccc3SC(c3cccc(F)c3)C12 (configuration not stated) | > 1000 | > 1000 | > 1000 | > 1000 | > 1000 | > 2500 | > 2500 |
